Laboratory results as given in PubChem BioAssay AID588774 (The Scripps Research Institute Molecular Screening Center, 2011).
Active and inactive are the calls of the source.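 The calls were made as follows: active = target enzyme inhibited at least 50% at a set dose, and selective over every off-target enzyme by a set factor; inactive = weaker inhibition or too little selectivity.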

Key:
FAAH = assay: pPAFAH inhibition and serine hydrolase selectivity, SAR follow-up, selectivity assay for pPAFAH inhibitor project, biochemical, gel-based, FP-Rh fluorescence, complex proteome, SAR compounds (AID 588774); details: gel-based competitive ABPP, stronger effect = higher value;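 as to inhibition: 0% = DMSO-only band intensity and 100% = blank gel background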
LYPLA2 = assay: as above; details: gel-based competitive ABPP, stronger effect = higher value
[1] = biological target: Monoglyceride lipase (Mus musculus) (UniProt O35678); assay: as above; details: gel-based competitive ABPP, MAGL, stronger effect = higher value
Chain of Monoglyceride lipase (Mus musculus) (O35678 whole entry, looked up): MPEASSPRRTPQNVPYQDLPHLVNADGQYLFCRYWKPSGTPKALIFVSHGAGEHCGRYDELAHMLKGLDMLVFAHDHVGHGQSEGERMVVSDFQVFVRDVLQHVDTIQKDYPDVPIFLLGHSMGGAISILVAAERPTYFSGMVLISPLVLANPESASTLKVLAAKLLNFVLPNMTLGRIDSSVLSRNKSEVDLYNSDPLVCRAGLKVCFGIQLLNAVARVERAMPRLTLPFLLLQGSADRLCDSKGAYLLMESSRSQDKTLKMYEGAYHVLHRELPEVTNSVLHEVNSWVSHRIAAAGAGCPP

pPAFAH = assay: as above; details: gel-based competitive ABPP, anti-targets inhibited, at 10 µM
[2] = biological target: Platelet-activating factor acetylhydrolase (Mus musculus) (UniProt Q60963); assay: as above; details: gel-based competitive ABPP, pPAFAH, stronger effect = higher value
Chain of Platelet-activating factor acetylhydrolase (Mus musculus) (Q60963 whole entry, looked up): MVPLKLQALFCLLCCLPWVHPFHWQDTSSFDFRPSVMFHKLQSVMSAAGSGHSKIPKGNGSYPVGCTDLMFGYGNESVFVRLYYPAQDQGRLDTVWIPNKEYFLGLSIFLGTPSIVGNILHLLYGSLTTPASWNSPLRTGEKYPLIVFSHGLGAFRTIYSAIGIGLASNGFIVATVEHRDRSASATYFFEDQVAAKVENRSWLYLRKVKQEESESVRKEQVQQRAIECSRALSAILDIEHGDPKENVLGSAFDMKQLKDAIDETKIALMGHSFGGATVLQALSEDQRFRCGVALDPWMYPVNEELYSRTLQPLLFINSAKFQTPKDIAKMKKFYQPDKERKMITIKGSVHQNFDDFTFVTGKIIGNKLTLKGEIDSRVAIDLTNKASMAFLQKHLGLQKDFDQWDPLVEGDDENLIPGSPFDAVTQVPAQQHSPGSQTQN

ABHD4 = ABHD4 (UniProt Q8VD66); assay: as above; details: gel-based competitive ABPP, stronger effect = higher value
Chain of ABHD4 (Q8VD66 whole entry, looked up): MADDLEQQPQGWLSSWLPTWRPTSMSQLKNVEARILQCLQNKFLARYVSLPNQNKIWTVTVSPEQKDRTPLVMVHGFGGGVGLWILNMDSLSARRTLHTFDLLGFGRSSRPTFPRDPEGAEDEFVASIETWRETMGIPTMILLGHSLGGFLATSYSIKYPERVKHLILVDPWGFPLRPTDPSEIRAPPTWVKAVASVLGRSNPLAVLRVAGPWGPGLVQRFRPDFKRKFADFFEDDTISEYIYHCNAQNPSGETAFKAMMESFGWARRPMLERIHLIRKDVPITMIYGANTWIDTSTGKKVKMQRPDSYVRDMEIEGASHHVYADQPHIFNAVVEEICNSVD

ABHD3 = assay: as above; details: gel-based competitive ABPP, at 10 µM, stronger effect = higher value
ABHD6 = assay: as above; details: gel-based competitive ABPP, stronger effect = higher value
[3] = as above; details: gel-based competitive ABPP, at 10 µM
LYPLA1 = assay: as above; details: gel-based competitive ABPP, stronger effect = higher value
MW 30 kDa = assay: as above; details: gel-based competitive ABPP, stronger effect = higher value

Row | SMILES | inhibition (FAAH; at 10 µM) | inhibition (FAAH; inhibition, at 0.1 µM) | inhibition (FAAH; inhibition, at 1 µM) | inhibition (LYPLA2; at 10 µM) | inhibition ([1]; at 10 µM) | anti-target count (pPAFAH) | inhibition ([2]; at 10 µM) | inhibition ([2]; inhibition, at 0.1 µM) | inhibition ([2]; inhibition, at 1 µM) | inhibition (ABHD4; at 10 µM) | inhibition (ABHD3) | inhibition (ABHD6; at 10 µM) | anti-target count ([3]; ABHD3, anti-targets inhibited) | anti-target count ([3]; ABHD4, anti-targets inhibited) | anti-target count ([3]; ABHD6, anti-targets inhibited) | anti-target count ([3]; FAAH, anti-targets inhibited) | anti-target count ([3]; LYPLA1, anti-targets inhibited) | anti-target count ([3]; LYPLA2, anti-targets inhibited) | anti-target count ([3]; MAGL, anti-targets inhibited) | inhibition (LYPLA1; at 10 µM) | also measured
1 | Cc1cc(N2CCN(C(=O)n3oc4cc(Cl)ccc4c3=O)CC2)c2ccccc2n1 | 99% (inactive) | 39% | 79% | 24% (inactive) | 97% | 3 | 99% | 87% | 87% | 48% (inactive) | 0% (inactive) | 38% (inactive) | 3 | 3 | 3 | 3 | 3 | 3 | 3 | 73% (inactive) | inhibition (LYPLA2; inhibition, at 0.1 µM): 3%; inhibition (LYPLA2; inhibition, at 1 µM): 6%; inhibition ([1]; inhibition, at 0.1 µM): 54%; inhibition ([1]; inhibition, at 1 µM): 73%; inhibition (ABHD4; inhibition, at 0.1 µM): 36%; inhibition (ABHD4; inhibition, at 1 µM): 38%; inhibition (ABHD6; inhibition, at 0.1 µM): 19%; inhibition (ABHD6; inhibition, at 1 µM): 32%; inhibition (LYPLA1; inhibition, at 1 µM): 13%
2 | O=C(Oc1noc2cc(Cl)ccc12)N1CCCCC1 | 100% | 96% | 100% | 0% (inactive) | 23% (inactive) | 2 | 100% | 82% | 85% | 0% (inactive) | 0% (inactive) | 46% (inactive) | 2 | 2 | 2 | 2 | 2 | 2 | 2 | 0% (inactive) | inhibition ([1]; inhibition, at 1 µM): 13%; inhibition (MW 30 kDa; at 1 µM): 40%; inhibition (ABHD6; inhibition, at 0.1 µM): 20%; inhibition (ABHD6; inhibition, at 1 µM): 38%
3 | O=C(N1CCOCC1)n1oc2cc(Cl)ccc2c1=O | 100% | 83% | 96% | 54% (inactive) | 68% (inactive) | 6 | 98% | 98% | 98% | 0% (inactive) | 0% (inactive) | 79% (inactive) | 6 | 6 | 6 | 6 | 6 | 6 | 6 | 81% (inactive) | inhibition (LYPLA2; inhibition, at 0.1 µM): 21%; inhibition (LYPLA2; inhibition, at 1 µM): 33%; inhibition ([1]; inhibition, at 0.1 µM): 36%; inhibition ([1]; inhibition, at 1 µM): 53%; inhibition (MW 30 kDa; at 0.1 µM): 31%; inhibition (MW 30 kDa; at 1 µM): 43%; inhibition (ABHD6; inhibition, at 0.1 µM): 37%; inhibition (ABHD6; inhibition, at 1 µM): 58%; inhibition (LYPLA1; inhibition, at 0.1 µM): 17%; inhibition (LYPLA1; inhibition, at 1 µM): 33%
4 | Cc1cc(N2CCN(C(=O)Oc3noc4cc(Cl)ccc34)CC2)c2ccccc2n1 | 100% | 87% | 100% | 0% (inactive) | 86% | 4 | 100% | 89% | 91% | 0% (inactive) | 0% (inactive) | 53% | 4 | 4 | 4 | 4 | 4 | 4 | 4 | 50% (inactive) | inhibition ([1]; inhibition, at 0.1 µM): 79%; inhibition ([1]; inhibition, at 1 µM): 83%; inhibition (ABHD6; inhibition, at 0.1 µM): 53%; inhibition (ABHD6; inhibition, at 1 µM): 53%; inhibition (LYPLA1; inhibition, at 0.1 µM): 20%; inhibition (LYPLA1; inhibition, at 1 µM): 25%
5 | Cc1cc(N2CCN(C(=O)Oc3ccc(-c4ccc(Br)cc4)cc3)CC2)c2ccccc2n1 | 0% (inactive) | – | – | 0% (inactive) | 0% (inactive) | 0 | 56% (inactive) | 2% | 37% | 0% (inactive) | 0% (inactive) | 0% (inactive) | 0 | 0 | 0 | 0 | 0 | 0 | 0 | 0% (inactive) | –
6 | Cc1cc(N2CCN(C(=O)Oc3ccc(-c4ccccc4)cc3)CC2)c2ccccc2n1 | 0% (inactive) | – | – | 0% (inactive) | 0% (inactive) | 0 | 100% | 66% | 95% | 0% (inactive) | 0% (inactive) | 0% (inactive) | 0 | 0 | 0 | 0 | 0 | 0 | 0 | 0% (inactive) | –

The next lines start with results.

Row | inhibition (FAAH; at 10 µM) | inhibition (FAAH; inhibition, at 0.1 µM) | inhibition (FAAH; inhibition, at 1 µM) | inhibition (LYPLA2; at 10 µM) | inhibition ([1]; at 10 µM) | anti-target count (pPAFAH) | inhibition ([2]; at 10 µM) | inhibition ([2]; inhibition, at 0.1 µM) | inhibition ([2]; inhibition, at 1 µM) | inhibition (ABHD4; at 10 µM) | inhibition (ABHD3) | inhibition (ABHD6; at 10 µM) | anti-target count ([3]; ABHD3, anti-targets inhibited) | anti-target count ([3]; ABHD4, anti-targets inhibited) | anti-target count ([3]; ABHD6, anti-targets inhibited) | anti-target count ([3]; FAAH, anti-targets inhibited) | anti-target count ([3]; LYPLA1, anti-targets inhibited) | anti-target count ([3]; LYPLA2, anti-targets inhibited) | anti-target count ([3]; MAGL, anti-targets inhibited) | inhibition (LYPLA1; at 10 µM) | SMILES | also measured
7 | 0% (inactive) | – | – | 0% (inactive) | 0% (inactive) | 0 | 95% (inactive) | 2% | 63% | 0% (inactive) | 0% (inactive) | 0% (inactive) | 0 | 0 | 0 | 0 | 0 | 0 | 0 | 0% (inactive) | Cc1cc(N2CCN(C(=O)Oc3ccc(C4CCCCC4)cc3)CC2)c2ccccc2n1 | –
8 | 0% (inactive) | – | – | 0% (inactive) | 0% (inactive) | 1 | 93% (inactive) | 46% | 87% | 72% (inactive) | 0% (inactive) | 0% (inactive) | 1 | 1 | 1 | 1 | 1 | 1 | 1 | 0% (inactive) | Cc1cc(N2CCN(C(=O)Oc3ccc(C(F)(F)F)cc3)CC2)c2ccccc2n1 | inhibition (ABHD4; inhibition, at 0.1 µM): 32%; inhibition (ABHD4; inhibition, at 1 µM): 39%
9 | 0% (inactive) | – | – | 0% (inactive) | 0% (inactive) | 0 | 91% (inactive) | 28% | 82% | 27% (inactive) | 0% (inactive) | 0% (inactive) | 0 | 0 | 0 | 0 | 0 | 0 | 0 | 0% (inactive) | Cc1cc(N2CCN(C(=O)Oc3ccc(C4CCCC4)cc3)CC2)c2ccccc2n1 | –
10 | 71% (inactive) | 16% | 36% | 0% (inactive) | 64% (inactive) | 2 | 100% (inactive) | 47% | 95% | 0% (inactive) | 0% (inactive) | 0% (inactive) | 2 | 2 | 2 | 2 | 2 | 2 | 2 | 0% (inactive) | Cc1cc(N2CCN(C(=O)Oc3ccc([N+](=O)[O-])cc3)CC2)c2ccccc2n1 | inhibition ([1]; inhibition, at 0.1 µM): 23%; inhibition ([1]; inhibition, at 1 µM): 51%
11 | 0% (inactive) | – | – | 0% (inactive) | 0% (inactive) | 0 | 87% (inactive) | 35% | 80% | 0% (inactive) | 0% (inactive) | 0% (inactive) | 0 | 0 | 0 | 0 | 0 | 0 | 0 | 0% (inactive) | Cc1cc(N2CCN(C(=O)Oc3ccc(-n4cccc4)cc3)CC2)c2ccccc2n1 | –
